Series [1] is described as follows: T1-weighted MRI visualization of contrast agent in seeds in agarose phantom. Here is the method:
Initially, the titanium and acrylic seeds were custom designed to have an outer and inner diameter of 3 mm and 1.5 mm and an outer length and inner hollow length of 4.5 mm and 3.5 mm, respectively. After injection of the cobalt-chloride complex contrast (CoCl2-NAC) agent into the manufactured seeds, MRI was performed on the seeds and strand-like combinations. For the canine prostate experiments, standard nonradioactive titanium seeds were incorporated into a synthesized strand, with acrylic and glass tubes cut with an outer diameter of 0.8 mm and length of 5.5 mm, injected with the CoCl2-NAC agent ([…]), and closed on the ends with two polymer taps.
All studies involving animals or animal tissues were performed under an Institutional Animal Care and Use Committee-approved protocol. For this experiment, after completion of another investigator's in vivo experiments, a canine prostate was excised at necropsy, placed in normal saline, and fixed in agarose gel (10% by weight, Type-A, Sigma-Aldrich, St. Louis, Mo.). The ECAMs were subsequently inserted into the prostate and imaged using MRI. Similarly, the ECAMs were inserted into an in-house-manufactured agarose phantom for direct visualization. The signal intensities of the agarose and prostatic tissue were similar on T1 weighted MRI, allowing substantial preliminary assessment of the relative contrast of the ECAMs without a tissue-based phantom. 1.5-T MRI T1-weighted sequences for imaging marker experiments.
All studies were performed on a 1.5-T clinical MRI scanner (Excite HD, GE Healthcare Technologies, Waukesha, Wis.) equipped with a high-performance gradient hardware package (Cardiac Resonance Module) and multichannel, fast-receiver hardware. The maximal achievable slew rate was 120 mT/m/s, maximal amplitude was 23 mT/m, and receiver bandwidth was 500 kHz. For relaxation measurements, the samples were placed in a room temperature water bath and imaged using a quadrature knee coil. T1-weighted measurements used an inversion recovery spin-echo technique (repetition time [TR]/[…] [TE], 5,000 ms/10 ms; inversion time, 50-4,000 ms). The T2-weighted measurements used a spin echo sequence (TR, 5,000 ms; TE, 20-1,000 ms). T2*-weighted measurements used a multi-echo, fast, gradient echo acquisition (TR, 600 ms; TE, 2-57 ms, with an echo spacing of 3.3 ms). All imaging data were analyzed using in-house software written in MATLAB (MathWorks, Natick, Mass.). […]

Series [2] can be described thus: Pharmacokinetic arm: cobalt disposition in plasma, tissues, urine and feces after intraprostatic CoCl2-NAC injection, total cobalt by ICP. The format is in vivo, rat. How it is done:
(§1) A toxicity and pharmacokinetic study of intraprostatically-administered cobalt dichloride-N-acetyl cysteine (CoCl2-NAC) was conducted in a rat model by the Pharmaceutical Development Center in the Department of Veterinary Medicine and Surgery (DVMS) facilities, U.T.M.D. Anderson Cancer Center, (Houston, Tex.). CoCl2-NAC is a novel MRI marker for prostate brachytherapy under development for use in localization of implanted radioactive seeds under MRI. […] The purpose of this study was to evaluate the distribution and potential toxicity of Co-NAC systemic exposure secondary to potential leakage from in-situ rupture of the Co-NAC-ECAMs in a male rat model.
The volume of CoCl2-NAC injected (9 μl) was predetermined on the assumption of 80-120 seeds leaking into the human prostate following implantation and scaling to a 150 gram male rat model. Cobalt disposition in plasma and tissues and organ toxicity were evaluated. For the pharmacokinetic arm, 60 male rats (20/group) were assigned to two dose groups and a vehicle control group and administered 1% (low concentration) and 10% (high concentration) CoCl2-NAC or vehicle control as an injection into the prostate. Following dosing, one cohort of 5 animals from each dose-level was sacrificed at 5, 30, and 60 minutes and 6 hours following the end of drug administration. Specific tissues (spleen, heart, brain, prostate, lung, kidney, liver, gut) from all animals were harvested, blotted, and weighed. An additional 3 animals were administered the high concentration and were maintained individually in metabolic cages. Urine and feces were collected at the end of 60 min, 6 and 24 hr intervals on the day prior to dosing and post dosing the following day. All samples were analyzed for total cobalt content by inductively-coupled plasma (ICP) analysis. For the toxicity arm, 30 male rats (10/group) were assigned to two dose groups and a vehicle control group and administered 1% and 10% CoCl2-NAC or vehicle control injected into the prostate. […]

A short description of series [3]: Relaxivity measurements on 1.5-T clinical MRI scanner. It counts as physicochemical. How it is done: All studies were performed on a 1.5-T clinical MRI scanner (Excite HD, GE Healthcare Technologies, Waukesha, Wis.) equipped with a high-performance gradient hardware package (Cardiac Resonance Module) and multichannel, fast-receiver hardware. The maximal achievable slew rate was 120 mT/m/s, maximal amplitude was 23 mT/m, and receiver bandwidth was 500 kHz. For relaxation measurements, the samples were placed in a room temperature water bath and imaged using a quadrature knee coil. T1-weighted measurements used an inversion recovery spin-echo technique (repetition time [TR]/[…] [TE], 5,000 ms/10 ms; inversion time, 50-4,000 ms). The T2-weighted measurements used a spin echo sequence (TR, 5,000 ms; TE, 20-1,000 ms). T2*-weighted measurements used a multi-echo, fast, gradient echo acquisition (TR, 600 ms; TE, 2-57 ms, with an echo spacing of 3.3 ms). All imaging data were analyzed using in-house software written in MATLAB (MathWorks, Natick, Mass.). The MRI sequences used for the ex vivo experiments have previously been described (see, Shetty, A. M., et al., Journal of Magnetic Resonance Imaging, Vol. 26, pp. 1672-1677 (2007)) and used a high-resolution, three-dimensional, spoiled gradient recalled echo acquisition (TR/TE, 15.6 ms/2.5 ms; flip angle, 60°; voxel size, 0.4×0.4×0.8 mm, receiver bandwidth, 488.3 Hz/pixel). The large flip angle was used to accentuate the signal from the ECAMs (with lower T1-weighted relaxation times) against the background. The high bandwidth and short echo time were chosen to minimize susceptibility artifacts in the region of the titanium markers.
Relaxivity measurements were obtained using the slope of the weighted least-squares regression of the relaxation rate versus concentration. […] The ratio of the relaxivities were >1 (r2/r1=1.21±0.29), which is consistent with T1-weighted positive contrast agents.

Series [4] is described as follows: Toxicity arm: single intraprostatic CoCl2-NAC injection, clinical pathology, gross and microscopic pathology. The format is in vivo, rat. How it is done: as §1
The volume of CoCl2-NAC injected (9 μl) was predetermined on the assumption of 80-120 seeds leaking into the human prostate following implantation and scaling to a 150 gram male rat model. Cobalt disposition in plasma and tissues and organ toxicity were evaluated. For the pharmacokinetic arm, 60 male rats (20/group) were assigned to two dose groups and a vehicle control group and administered 1% (low concentration) and 10% (high concentration) CoCl2-NAC or vehicle control as an injection into the prostate. Following dosing, one cohort of 5 animals from each dose-level was sacrificed at 5, 30, and 60 minutes and 6 hours following the end of drug administration. Specific tissues (spleen, heart, brain, prostate, lung, kidney, liver, gut) from all animals were harvested, blotted, and weighed. An additional 3 animals were administered the high concentration and were maintained individually in metabolic cages. Urine and feces were collected at the end of 60 min, 6 and 24 hr intervals on the day prior to dosing and post dosing the following day. All samples were analyzed for total cobalt content by inductively-coupled plasma (ICP) analysis. For the toxicity arm, 30 male rats (10/group) were assigned to two dose groups and a vehicle control group and administered 1% and 10% CoCl2-NAC or vehicle control injected into the prostate. Groups of animals were sacrificed and necropsied on Study Days 1 (24 hrs) and 14 and blood and tissues collected for evaluation of clinical pathology and organ toxicity.

The target of another series is androgen receptor (Homo sapiens, UniProt P10275). To be noted: concentration; cited from earlier work.
Chain of androgen receptor (P10275 whole entry, species assumed): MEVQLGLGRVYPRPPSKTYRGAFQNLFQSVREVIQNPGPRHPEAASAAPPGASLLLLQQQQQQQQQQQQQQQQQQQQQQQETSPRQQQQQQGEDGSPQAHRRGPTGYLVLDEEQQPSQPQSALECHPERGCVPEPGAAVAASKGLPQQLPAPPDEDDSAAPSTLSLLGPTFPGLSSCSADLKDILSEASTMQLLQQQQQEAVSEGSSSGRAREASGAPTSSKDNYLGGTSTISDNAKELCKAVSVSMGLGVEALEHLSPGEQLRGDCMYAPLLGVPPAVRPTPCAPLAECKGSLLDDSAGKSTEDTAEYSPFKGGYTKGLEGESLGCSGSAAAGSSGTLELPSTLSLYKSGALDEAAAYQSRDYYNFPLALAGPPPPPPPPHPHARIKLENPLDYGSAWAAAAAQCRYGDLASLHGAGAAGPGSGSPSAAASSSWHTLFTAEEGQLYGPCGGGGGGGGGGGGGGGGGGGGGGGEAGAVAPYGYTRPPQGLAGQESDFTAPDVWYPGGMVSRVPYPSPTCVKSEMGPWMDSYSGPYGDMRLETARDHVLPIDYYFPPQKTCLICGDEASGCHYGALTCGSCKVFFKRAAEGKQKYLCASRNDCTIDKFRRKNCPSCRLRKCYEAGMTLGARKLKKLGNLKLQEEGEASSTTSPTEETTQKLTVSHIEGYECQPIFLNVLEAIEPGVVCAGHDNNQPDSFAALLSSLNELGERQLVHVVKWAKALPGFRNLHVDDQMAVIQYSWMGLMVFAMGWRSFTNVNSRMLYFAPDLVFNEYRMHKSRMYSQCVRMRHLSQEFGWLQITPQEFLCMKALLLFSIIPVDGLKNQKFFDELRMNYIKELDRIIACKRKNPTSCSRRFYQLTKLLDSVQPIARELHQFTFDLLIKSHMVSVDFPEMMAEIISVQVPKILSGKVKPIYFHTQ

As to `CC(=O)N[C@@H](CS)C(=O)O.[Cl][Co][Cl]` [CoCl2-NAC, cobalt-dichloride-N-acetyl cysteine], the “visualization of acrylic and glass hollow seeds containing the agent” value in series [1] (0.5-5 μL of aqueous solution (0.3-10 wt. %), phantom, 1.5-T MRI) was “well visualized”. In addition, the “visualization inside the titanium seed” value in series [1] (T1-weighted MRI, phantom) was “could not be visualized”. Also, the “signal on T1-weighted MRI inside polymer seeds” value in series [1] (concentrations of 0.5-10%, in phantom) is given as “increased signal”. Moreover, in series [1] (in phantom), the “signal on three-dimensional T1-weighted spoiled gradient recalled acquisition, compared with the various agents tested” value was “highest signal”. In series [2] (high dose group (10%), 4 of 5 animals), the “peri-prostatic cobalt concentration by 60 minutes” value is “not quantifiable”. In series [2] (low dose group (1%)), the “cobalt in kidney tissue” value is on record as “No cobalt was measurable” and the cobalt in plasma entry is “no measurable cobalt”. The “ratio of the relaxivities r2/r1” value in series [3] was found to be 1.21±0.29. In series [3] (room temperature water bath), the “spin-lattice relaxivity (r1)” value was determined as 0.093 ± 0.022 mM⁻¹ s⁻¹ and the “spin-spin relaxivity (r2)” value is 0.105 ± 0.01 mM⁻¹ s⁻¹. In addition, in series [4] (1% and 10% CoCl2-NAC, Study Days 1 and 14), the “alterations in group means of hematological or clinical chemistry parameters” value is on record as “No toxicologically-important dose-related alterations”. The “microscopic examination (histopathology)” value in series [4] (1% and 10% CoCl2-NAC, any of the tested dose levels) is on record as “no histopathologic lesions”. Moreover, the “test article-related morbidity or mortality” value in series [4] (1% and 10% CoCl2-NAC, intraprostatic, male rat) is “No test article-related morbidity or mortality”. Also, the “no-observed-adverse-effect-level (NOAEL)” value in series [4] (single intra-prostatic administration, male rat, highest dose tested) is 10 % CoCl2-NAC solution. In addition, in series [4] (toxicology arm, 1% and 10% CoCl2-NAC), the “test article-related adverse clinical signs” value was “No test article-related adverse clinical signs”.
On to `CC(C)(O)C(=O)Nc1ccc([N+](=O)[O-])c(C(F)(F)F)c1` [hydroxyflutamide], for which the “effect on transcriptional activity of androgen receptor” value on androgen receptor is “enhance the transcriptional activity”.

These data come from patent US9555135B2, “Cobalt-based MRI contrast agent and imaging system” (BOARD OF REGENTS, THE UNIVERSITY OF TEXAS SYSTEM, priority 2011, dated 2017).
